Earlier results on one compound are cited in patent US20060009509A1, “Progesterone receptor antagonists, contraceptive regimens, and kits” (Wyeth, priority 2004, published 2006).

Read-outs that look alike come from different tables or passages of the source.

The subject of the data set is women.

For the compound `CC#C[C@]1(O)CC[C@H]2[C@@H]3CCC4=CC(=O)CCC4=C3[C@@H](c3ccc(N(C)C)cc3)C[C@@]21C` [mifepristone], under “1 mg daily, 3-month treatment (Croxatto 1998)”, the “women who ovulated at least once” value is 14 of 21. Moreover, the “ovulations, % of cycles” value by setting is: (2 mg continuous, 4 months, Edinburgh site (Brown 2002)) 9.6%; (2 mg continuous, Shanghai site (Brown 2002)) 2.5%; (5 mg continuous, 4 months, Edinburgh site (Brown 2002)) 5.2%; (5 mg continuous, Shanghai site (Brown 2002)) 1.2%. The prevention of ovulation entry reads like this: (continuous dose of 1 mg, study of 11 subjects (Batista 1992)) “appeared to prevent ovulation”; (continuous dose of 1 mg, study with 5 subjects (Croxatto 1993)) “not”; (continuous low doses 2-10 mg, one treatment cycle, about 5 subjects per dose group (Spitz 1993; Ledger 1992)) “prevent ovulation”.
